In patent US9034850B2, “Gonadotropin releasing hormone receptor antagonist, preparation method thereof and pharmaceutical composition comprising the same” (SK Chemicals Co., Ltd., priority 2009, dated 2015) one finds Cmax, AUC(0-t) and IC50 data, which are given here for 26 molecules.

A word on the Cmax: it is the highest concentration seen after dosing. As usually defined, the IC50 is the concentration needed to halve the response being measured.

Tested on in one series: not listed separately
The series is described as follows: Assay for oral absorptivity (plasma drug level after oral administration). The following applies: male, rat, 40 umol/kg; SD rats, oral, plasma. In kind it is in vivo. How it is done:
1) Preparation of Specimen for Measuring Drug Level upon Oral Administration
For use as experimental animals, SD rats (Charles River Japan, male, 8 weeks old, 220-270 g) was starved overnight. Test compounds (25˜30 mg) were dissolved in polyethyleneglycol 400 (PEG400) 20%, and a 0.5% carboxy methyl cellulose (CMC) solution 80% to produce solutions of 4 μmmol/mL. The rats were weighed. The test compounds were orally administered at a dose of 40 μmol/kg (ca. 25˜30 mg/kg) to the rats using a sonde and a 3 mL syringe. Blood samples were taken 20, 40, 60, 120, 240, and 360 min after the oral administration. Plasmas separated from the blood samples by centrifugation were used as specimens.
2) Measurement of Drug Level
0.09 mL of methanol was added to 0.03 mL of the plasma obtained in 1), followed by vortexing to precipitate and remove proteins. 0.005 mL of the supernatant was injected to LC/MS/MS.
Apparatus: Shiseido Nanospace SI-2
Column: Shiseido capcelpack C18, MG3, 5 um, 2.0 mm I.D×50 mm
Mobile Phase: a mixture of 3:7 10 mM ammonium formate (pH 4.0): acetonitrile.
Consider `Cc1c(N2CCN(Cc3cccc(C(F)(F)F)c3)CC2)c(=O)n(C[C@H](NCCCC(=O)O)c2ccccc2)c(=O)n1Cc1c(F)cccc1C(F)(F)F` [Compound 11-2], for which the highest level (Cmax) was 5100 ng/mL.

The molecule `Cc1cc(F)cc([C@H](Cn2c(=O)c(N3CCN(Cc4ccc(C(F)(F)F)o4)CC3)c(C)n(Cc3c(F)cccc3C(F)(F)F)c2=O)NCCCC(=O)O)c1` [Compound 11-4] had a Cmax of 4140 ng/mL.

Still in this series, the particulars now being: male, rat, 40 μmol/kg; plasma drug level after oral administration, SD rats; read-out: AUC8 hr.
Consider `Cc1c(N2CCN(Cc3cccc(C(F)(F)F)c3)CC2)c(=O)n(C[C@H](NCCCC(=O)O)c2ccccc2)c(=O)n1Cc1c(F)cccc1C(F)(F)F` [Compound 11-2], for which the AUC(0-t) worked out at 29400 ng·h/mL.

For `Cc1cc(F)cc([C@H](Cn2c(=O)c(N3CCN(Cc4ccc(C(F)(F)F)o4)CC3)c(C)n(Cc3c(F)cccc3C(F)(F)F)c2=O)NCCCC(=O)O)c1` [Compound 11-4], the AUC(0-t) was determined as 19600 ng·h/mL.

The target in the next series is T1, GnRH receptor (Homo sapiens, UniProt P30968).
T1 sequence (P30968 1-328): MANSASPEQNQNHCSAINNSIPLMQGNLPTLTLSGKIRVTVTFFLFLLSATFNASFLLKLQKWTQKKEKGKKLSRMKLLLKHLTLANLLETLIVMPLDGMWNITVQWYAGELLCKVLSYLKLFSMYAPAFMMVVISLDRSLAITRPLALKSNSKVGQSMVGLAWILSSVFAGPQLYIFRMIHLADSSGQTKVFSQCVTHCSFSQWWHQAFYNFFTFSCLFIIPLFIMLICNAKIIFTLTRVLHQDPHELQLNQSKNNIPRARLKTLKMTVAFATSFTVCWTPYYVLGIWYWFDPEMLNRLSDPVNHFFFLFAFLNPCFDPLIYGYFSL
Description: GnRH-R reporter assay (NFAT promoter luciferase, leuprolide acetate as ligand).
Details: not given
Format: cell-based. How it is done: A double-transformed cell line (HEK293 transformed with pcDNA3.1/GnRH receptor and pGL4/NFAT promoter) was employed. To conduct a GnRH-R reporter assay, the double-transformed cell line was diluted at a density of 3×10^4 cells/well in a medium (DMEM, 10% FBS, 1% Penicillin-Streptomycin), plated into polylysine-coated white-clear bottom 96-well plates and incubated for 24 hrs. After the medium was changed with a serum-free medium (DMEM, 1% Penicillin-Streptomycin), the cells were incubated for an additional 12 hrs before reaction. The cells were incubated for 1 hr with a GnRH antagonist to be tested and then for an additional 6 hrs with a ligand (leuprolide acetate, Sigma), followed by reaction with a Luciferase assay system (Promega, Cat. No. E1500).
Each sample was analyzed at a 6-dose level to obtain the binding inhibitory rates (%) of the competitors on the basis of the measured luminescence. IC50 values were calculated using a nonlinear least square regression method with Prism (GraphPad, Inc.).
A general note: Reporter assays use an easily measured gene product as a stand-in for the process of interest.
With `Cc1c(N2CCN(Cc3cccc(C(F)(F)F)c3)CC2)c(=O)n(C[C@H](NCCCC(=O)O)c2ccccc2)c(=O)n1Cc1c(F)cccc1C(F)(F)F` [Compound 11-2], the IC50 was 0.0099 µM.

The series is the same for the next values; noted with them: HEK293 transformed with pcDNA3.1/GnRH receptor and pGL4/NFAT promoter; luciferase; read-out: IC50 Value.
`Cc1cc(F)cc([C@H](Cn2c(=O)c(N3CCN(Cc4ccc(C(F)(F)F)o4)CC3)c(C)n(Cc3c(F)cccc3C(F)(F)F)c2=O)NCCCC(=O)O)c1` [Compound 11-4]: the IC50 is 0.0049 µM.

The target of the next series is T1, GnRH receptor. Description: GnRH receptor membrane binding assay ([125I]-D-Trp6-LHRH competition).
Details: not given
More on the design: purchased Perkin Elmer; host or cells: CHO-K1 (stably transfected), membrane preparation. How it is done: A membrane Target system (Perkin Elmer), isolated from CHO-K1 cells stably transfected with a GnRH receptor, was employed. […] After incubation at 27° C. for 1 hr, the reaction mix was transferred to a filter (Fitermat A, PerkinElmer) using a vacuum pump and the reaction was terminated by washing many times with 50 mM tris-HCl buffer. The radioactivity on the filter was measured using Microbeta2 trilux (PerkinElmer). The competitors were analyzed for binding inhibition rate (%) on the basis of the measured radioactivity and calculated for IC50 values using a nonlinear least square regression method with Prism (GraphPad, Inc.).
Regarding `Cc1c(N2CCN(Cc3cccc(C(F)(F)F)c3F)CC2)c(=O)n(C[C@H](N)c2ccccc2)c(=O)n1Cc1c(F)cccc1F` [Compound 3-50], the IC50 was < 0.1 µM.

Consider `Cc1c(N2CCCC(C)C2)c(=O)n(C[C@H](N)c2ccccc2)c(=O)n1Cc1c(F)cccc1F` (stereo partly drawn) [Compound 1-18], for which the IC50 was < 0.1 µM.

Regarding `Cc1c(N2CCN(Cc3ccc(O)cc3)CC2)c(=O)n(C[C@H](N)c2ccccc2)c(=O)n1Cc1c(F)cccc1F` [Compound 3-31], the IC50 was < 0.1 µM.

Regarding `Cc1c(N2CCN(Cc3cccc(C(F)(F)F)c3)CC2)c(=O)n(C[C@H](N)c2ccccc2)c(=O)n1Cc1c(F)cccc1F` [Compound 3-47], the IC50 was < 0.1 µM.

As to `Cc1c(N2CCN(Cc3cccc(OC(F)(F)F)c3)CC2)c(=O)n(C[C@H](N)c2ccccc2)c(=O)n1Cc1c(F)cccc1F` [Compound 3-1], the IC50 was < 0.1 µM.

Still in this series, the particulars now being: membrane from CHO-K1 cells stably transfected with GnRH receptor; 0.2 nM [125I]-D-Trp6-LHRH; Table 26 lists compounds with IC50 of less than 100 nM; read-out: IC50 as measured by the GnRH receptor membrane binding assay.
As to `Cc1c(N2CCC(Cc3ccccc3)CC2)c(=O)n(C[C@H](N)c2ccccc2)c(=O)n1Cc1c(F)cccc1F` [Compound 1-26], the IC50 was < 0.1 µM.

Consider `Cc1c(N2CCN(Cc3ccc4c(c3)OCO4)CC2)c(=O)n(C[C@H](N)c2ccccc2)c(=O)n1Cc1c(F)cccc1F` [Compound 1-13], for which the IC50 was < 0.1 µM.

Consider `CSc1ccc(CN2CCN(c3c(C)n(Cc4c(F)cccc4F)c(=O)n(C[C@H](N)c4ccccc4)c3=O)CC2)cc1` [Compound 3-29], for which the half-maximal inhibitory concentration (IC50) is < 0.1 µM.

Turning to `Cc1c(N2CCN(Cc3cccnc3)CC2)c(=O)n(C[C@H](N)c2ccccc2)c(=O)n1Cc1c(F)cccc1F` [Compound 3-7], the IC50 was < 0.1 µM.

Turning to `Cc1cccc(C)c1CN1CCN(c2c(C)n(Cc3c(F)cccc3F)c(=O)n(C[C@H](N)c3ccccc3)c2=O)CC1` [Compound 4-6], the IC50 is < 0.1 µM.

`COC(=O)CNC(=O)c1cccc(CN2CCN(c3c(C)n(Cc4c(F)cccc4C(F)(F)F)c(=O)n(C[C@H](N)c4ccccc4)c3=O)CC2)c1` [Compound 10-1]: the IC50 is < 0.1 µM.

Regarding `Cc1c(N2CCN(Cc3ccc(C(F)(F)F)o3)CC2)c(=O)n(C[C@H](NCCC(O)C(=O)O)c2ccccc2)c(=O)n1Cc1c(F)cccc1C(F)(F)F` (stereo partly drawn) [Compound 21, 4-((R)-2-{3-(2-fluoro-6-trifluoromethyl-benzyl)-4-methyl-2,6-dioxo-5-[4-(5-trifluoromethyl-furan-2-ylmethyl)-piperazin-1-yl]-3,6-dihydro-2H-pyrimidin-1-yl}-1-phenyl-ethylamino)-2-hydroxy-butyric acid], the 50% inhibitory concentration (IC50) is < 0.1 µM.

Turning to `Cc1c(N2CCN(Cc3ccc(F)c(C(F)(F)F)c3)CC2)c(=O)n(C[C@H](N)c2ccccc2)c(=O)n1Cc1c(F)cccc1F` [Compound 3-52], the IC50 is < 0.1 µM.

Take `Cc1c(N2CCC(C)CC2)c(=O)n(C[C@H](N)c2ccccc2)c(=O)n1Cc1c(F)cccc1F` [Compound 1-16]: the IC50 was < 0.1 µM.

In the case of `CCOC(=O)CCNC(=O)c1cccc(CN2CCN(c3c(C)n(Cc4c(F)cccc4C(F)(F)F)c(=O)n(C[C@H](N)c4ccccc4)c3=O)CC2)c1` [Compound 10-2], the IC50 was < 0.1 µM.

As for `CCOP(=O)(O)CCCN[C@@H](Cn1c(=O)c(N2CCN(Cc3ccc(C(F)(F)F)o3)CC2)c(C)n(Cc2c(F)cccc2C(F)(F)F)c1=O)c1ccccc1` [Compound 11-10], the half-inhibitory concentration (IC50) is < 0.1 µM.

`Cc1c(N2CCN(Cc3ccc(OC(F)(F)F)cc3)CC2)c(=O)n(C[C@H](N)c2ccccc2)c(=O)n1Cc1c(F)cccc1F` [Compound 3-49]: the IC50 was < 0.1 µM.

Consider `N[C@@H](Cn1c(=O)c(N2CCN(Cc3cccc(-c4nnn[nH]4)c3)CC2)cn(Cc2c(F)cccc2C(F)(F)F)c1=O)c1ccccc1` [Compound 18, 3-((R)-2-amino-2-phenyl-ethyl)-1-(2-fluoro-6-trifluoromethyl-benzyl)-5-{4-[3-(1H-tetrazol-5-yl)-benzyl]-piperazin-1-yl}-1H-pyrimidine-2,4-dione], for which the IC50 was < 0.1 µM.

With `Cc1ccc(CN2CCN(c3c(C)n(Cc4c(F)cccc4F)c(=O)n(C[C@H](N)c4ccccc4)c3=O)CC2)c(C)c1` [Compound 4-4], the IC50 was < 0.1 µM.

Regarding `Cc1cc(C)c(CN2CCN(c3c(C)n(Cc4c(F)cccc4F)c(=O)n(C[C@H](N)c4ccccc4)c3=O)CC2)c(C)c1` [Compound 3-32], the IC50 was < 0.1 µM.

Consider `Cc1c(N2CCN(Cc3ccc(C(F)(F)F)o3)CC2)c(=O)n(C[C@H](NCCCCC(=O)O)c2ccccc2)c(=O)n1Cc1c(F)cccc1C(F)(F)F` [Compound 11-8], for which the IC50 was < 0.1 µM.

For the molecule `Cc1c(N2CCN(Cc3ccc(C(F)(F)F)o3)C(CO)C2)c(=O)n(C[C@H](N)c2ccccc2)c(=O)n1Cc1c(F)cccc1C(F)(F)F` (stereo partly drawn) [Compound 22, 3-((R)-2-amino-2-phenyl-ethyl)-1-(2-fluoro-6-trifluoromethyl-benzyl)-5-[3-hydroxymethyl-4-(5-trifluoromethyl-furan-2-ylmethyl)-piperazin-1-yl]-6-methyl-1H-pyrimidine-2,4-dione], the IC50 is < 0.1 µM.

Consider `Cc1c(N2CCN(Cc3ccc(C(F)(F)F)o3)CC2)c(=O)n(C[C@H](O)c2ccccc2)c(=O)n1Cc1c(F)cccc1C(F)(F)F` [Compound 20, 1-(2-fluoro-6-trifluoromethyl-benzyl)-3-((R)-2-hydroxy-2-phenyl-ethyl)-6-methyl-5-[4-(5-trifluoromethyl-furan-2-ylmethyl)-piperazin-1-yl]-1H-pyrimidine-2,4-dione], for which the IC50 is < 0.1 µM.

Turning to `Cc1cccc(CN2CCN(c3c(C)n(Cc4c(F)cccc4F)c(=O)n(C[C@H](N)c4ccccc4)c3=O)CC2)c1O` [Compound 4-9], the half-maximal inhibitory concentration (IC50) was < 0.1 µM.
